Key:
nuclear transfer embryos = test: Birth rate of cloned mice after implantation of treated nuclear transfer embryos; type: in vivo, mouse
Method: Based on the results of Example 3, the effect of the TSA treatment on the fetus birth rate was examined. […] after the initiation of activation and transferred to KSOM medium without TSA, and the nuclear transfer embryos transferred to KSOM medium without TSA were cultured in this medium until implantation. For producing cloned mice, embryos at the 2-cell stage were implanted into oviducts of pseudopregnant mice (surrogate mothers, day 0.5) on the day after the nuclear transfer. The pseudopregnancy treatment was carried out by mating a ICR female mouse (in estrus) with an ICR vasectomized male mouse on a one-to-one basis. The successful mating was confirmed based on the presence of plug formation. Cloned mice were delivered by cesarean section 19 days after the embryo transfer into oviduct. The ratio of the number of born cloned mouse fetuses to the number of implanted embryos (birth rate) was determined. Cloned mouse fetuses and placentas immediately after birth (left), and cloned mice (black) and a surrogate mother (white) after three weeks (right) are shown in FIG. 6.

[1] = system: oocytes into which nuclei from fibroblasts were transferred; test: Expanded blastocyst formation, fibroblasts as donor cells; type: cell-based, mouse; conditions: fibroblast donor nuclei; 50 nM TSA for 20 hours; FIG. 8
Method: (§1) A procedure similar to that described in Example 1 was carried out using fibroblasts or embryonic stem cells (ES cells) as donor cells in place of cumulus cells. Fibroblasts were obtained by culturing a fragment of mouse tail (Non-patent Document 11). E14 cells were used as ES cells (Non-patent Document 12).
(§2) Oocytes into which nuclei from the donor cells were transferred were treated with TSA for 20 hours, and cultured in KSOM medium without TSA until 96 hours after the initiation of activation. Then, development into expanded blastocysts was observed and the blastocyst formation rate was determined. 30 or more embryos were examined in each of the experimental groups of the respective cells.

[2] = system: oocytes into which nuclei from ES cells (E14) were transferred; test: Expanded blastocyst formation, ES cells as donor cells; type: cell-based, mouse; conditions: ES cell donor nuclei; 50 nM TSA for 20 hours; FIG. 8
Method: as §1, §2

[3] = system: oocytes injected with nuclear domains of round spermatids; test: Birth rate after round spermatid injection (ROSI); type: in vivo, mouse
Method: The effect of the TSA treatment according to the present invention on round spermatid injection (ROSI) was examined. ROSI was carried out according to the method as described in Non-patent Document 13.
Briefly, human choriogonadotropin (hCG) was first administered to female B6D2F1 mice (Japan SLC). Oocytes were collected after 16 hours and placed in a CZB medium. The oocytes were then transferred to a KSOM medium and incubated at 37° C. under 5% CO2.
The oocytes were activated by incubation in Ca^2+-free CZB medium supplemented with 5 mM strontium chloride (SrCl2) for 20 minutes. After 40 to 80 minutes, the oocytes were injected with the nuclear domains of round spermatids (characterized by diameters of about 10 μm and centrally located distinct nucleoli; see Non-patent Document 14) collected from a male C57BL/6 mouse (Japan SLC).
The oocytes injected with nuclei were transferred to KSOM medium containing 5 nM TSA, and further transferred to KSOM medium without TSA 10 hours after the initiation of activation.
Embryos at the 2-cell stage were implanted into oviducts of pseudopregnant mice (surrogate mothers, day 0.5) on the day after the spermatid injection. Fetuses were obtained by cesarean section 19 days after the embryo implantation. The ratio of the number of born fetuses to the number of implanted embryos (birth rate) was determined.

[4] = system: oocytes injected with mature sperm (ICSI); test: Paternal genome DNA methylation, mature sperm injection (ICSI); type: cell-based, mouse; conditions: 500 nM TSA, 20 hours
Method: The oocytes injected with the nuclear domains of round spermatids obtained by ROSI were cultured for 20 hours in the presence of 20 ng/ml of demecolcine in a medium containing 10 μM 5-azacytidine (5-aza) or 500 nM TSA as an anti-methylation agent. Similarly, injection of mature sperms was carried out (ICSI (intracytoplasmic sperm injection)). Specifically, heads of sperms were separated from the tails by applying pulses to the head-tail junctions by means of a piezo-driven pipette (PrimeTech), and injected into oocytes. The oocytes were not subjected to activation in this case. […]
For quantitative analysis of pronuclear DNA methylation levels, fluorescence images were subjected to densitometric analysis using the program Image-J from the National Institute of Health (http://rsb.info.nih.gov/ij/). For each pronucleus, the relative intensity of methylation of the paternal genome was calculated as a percentage of the fluorescence intensity of the maternal genome. In Table 3, data with (b) and without (a) anti-methylation agent were statistically analyzed by Scheffe tests for multiple mean comparisons using the statistical program SPSS version 12.0 (SPSS Inc.). […]

[5] = system: oocytes injected with nuclear domains of round spermatids (ROSI); test: Paternal genome DNA methylation, spermatid injection (ROSI); type: cell-based, mouse; conditions: 500 nM TSA
Method: The oocytes injected with the nuclear domains of round spermatids obtained by ROSI were cultured for 20 hours in the presence of 20 ng/ml of demecolcine in a medium containing 10 μM 5-azacytidine (5-aza) or 500 nM TSA as an anti-methylation agent. Similarly, injection of mature sperms was carried out (ICSI (intracytoplasmic sperm injection)). Specifically, heads of sperms were separated from the tails by applying pulses to the head-tail junctions by means of a piezo-driven pipette (PrimeTech), and injected into oocytes. The oocytes were not subjected to activation in this case.
The cultured oocytes injected with nuclei were fixed in PBS containing 4% paraformaldehyde at 4° C. overnight, washed in PBS containing 0.1% polyvinyl alcohol (PVA), and blocked in PBS containing 3% bovine serum albumin (BSA) and 0.2% Triton X-100 at 4° C. overnight. Subsequent steps were carried out at room temperature. The fixed oocytes injected with nuclei were permeabilized by treating with 0.2% Triton X-100 in PBS at room temperature. The oocytes were then treated with 2N HCl at room temperature for 50 minutes, neutralized in 100 mM Tris-HCl buffer (pH 8.0) (Non-patent Document 15), and extensively washed with PBS containing 1% BSA.
Next, incubation. with an anti-5-methylcytidine antibody (Eurogentec) in PBS containing 0.1% PVA was carried out for 2 to 3 hours. After extensively being washed, oocytes were stained with Alexa Flour-488 secondary antibody (Molecular Probes), stained with 5 μg/ml 4′,6′-diamidino-2-phenylindole (DAPI) for 30 minutes, and mounted using Vectashield (Vector Laboratory). The specimens were observed using Olympus BX51 microscope (Olympus). All images were captured with DP70 Olympus digital camera using Olympus Analysis software to apply colors to DAPI-stained DNA and merged images.
For quantitative analysis of pronuclear DNA methylation levels, fluorescence images were subjected to densitometric analysis using the program Image-J from the National Institute of Health (http://rsb.info.nih.gov/ij/). For each pronucleus, the relative intensity of methylation of the paternal genome was calculated as a percentage of the fluorescence intensity of the maternal genome. In Table 3, data with (b) and without (a) anti-methylation agent were statistically analyzed by Scheffe tests for multiple mean comparisons using the statistical program SPSS version 12.0 (SPSS Inc.). All percentile data were subjected to arcsine transformation prior to the statistical analysis.

[6] = system: fibroblasts as donor cells; conditions: donor fibroblasts cultured with agent prior to nuclear transfer; Non-patent Document 1; cited from earlier work
[7] = system: oocytes after fertilization; conditions: treatment of oocytes after fertilization; Non-patent Document 3; cited from earlier work

SMILES: CC(/C=C/C(=O)NO)=C\[C@@H](C)C(=O)c1ccc(N(C)C)cc1 [TSA, trichostatin A]
- Birth rate (%) (nuclear transfer embryos; TSA 5 nM, treatment time 10 h): 6.2%
- Number of born fetuses (nuclear transfer embryos; TSA 5 nM, treatment time 10 h, 289 implanted embryos): 18
- Birth rate (%) (nuclear transfer embryos; TSA 5 nM, treatment time 20 h): 3.2%
- Number of born fetuses (nuclear transfer embryos; TSA 5 nM, treatment time 20 h, 274 implanted embryos): 9
- Birth rate (%) (nuclear transfer embryos; TSA 50 nM, treatment time 10 h): 7.7%
- Number of born fetuses (nuclear transfer embryos; TSA 50 nM, treatment time 10 h, 91 implanted embryos): 7
- Birth rate (%) (nuclear transfer embryos; TSA 50 nM, treatment time 20 h): 2.5%
- Number of born fetuses (nuclear transfer embryos; TSA 50 nM, treatment time 20 h, 81 implanted embryos): 2
- birth rate vs control (nuclear transfer embryos; TSA treatment for 10 hours or 20 hours): increased
- blastocyst development rate compared with the case without TSA [1]: higher
- blastocyst development rate compared with the case without TSA [2]: higher
- increase in birth rate vs control without TSA ([3]; TSA 5 nM): about 4 fold
- Birth rate (%) ([3]; TSA 5 nM until 10 hours after initiation of activation): 26.3%
- Birth number ([3]; TSA 5 nM until 10 hours after initiation of activation, 38 implanted embryos): 10
- Ratio of methylation level of paternal genome to maternal genome (%) [4]: 8.2^b %
- majority of the methylation of the paternal genome, response to TSA treatment [5]: sensitive
- methylation of the maternal genome, response to TSA treatment [5]: resistant
- methylation of DNA in the pericentromeric region, response to TSA ([5]; region with high methylation of histone H3 Lys9): resistant
- Ratio of methylation level of paternal genome to maternal genome (%) ([5]; Spermatid (ROSI), 20 hours): 42.5^b %
- blastocyst development rate [6]: increased
- development rate [7]: reduced
